Laboratory results reported in US20040039052A1, “Urinary incontinence therapy” (priority 1997, published 2004).
Marks after values point to notes of the source that are not given here.

Experiments:
[1] = test system: patients with MS (detrusor hyperreflexia); test: separate study: RTX instillation in patients with MS; assay type: in vivo, human; set-up: LVA Lost volume after RTX / CAPA Capacity after RTX: unit not given here
[2] = test system: bladder afferents; conditions: rats; intravesicular 10-100 μmol; cited from earlier work
[3] = test system: patients having bladder hyperactivity; test: 14-patient study: single intravesical RTX instillation; fill cystometry (MCC), urination diary; assay type: in vivo, human; conditions: for Bladder Capacity, % Change / Bladder Capacity, Change from Pre-RTX: Bladder Capacity <200 mL; for Bladder Capacity, % Change / Bladder Capacity, Change from Pre-RTX / Bladder Capacity: n 7; for Mean Incontinent Episodes/day, % Change / Mean Incontinent Episodes/day, Difference from Pre-RTX / Mean Incontinent Episodes/day: n = 8; for Mean incontinent episodes: Pre-RTX 2.1; for Mean bladder capacity: Pre-RTX 182; for Bladder Capacity: patients with Bladder Capacity <200 mL, Pre-RTX 86; for Mean Incontinent Episodes/day: Pre-RTX 3.6
Text: Clinical studies reported herein include the following: observations from the patient's urination diary and their overall assessment of bladder function, maximum cystometric capacity of the bladder, and daily urinary frequency and incontinence episodes. […] Useful and effective treatment is that which alleviates any of the symptoms associated with neurogenic urinary dysfunction.
Patients chosen for study were of either sex, between the ages of 30 and 75, and weighing between 60 kg and 110 kg. Patients were selected having bladder hyperactivity associated with spinal cord injury, multiple sclerosis, peripheral neuropathy, muscular dystrophy or bladder instability. Pregnant women were excluded from the study as were those exposed to any other investigational drug within 30 days of baseline, those exposed to drugs affecting bladder performance or detrusor function within 10 days of baseline, those with known chemical addiction, those with seizure activity or major psychiatric disorders, and those with clinically significant cardiovascular, renal or hepatic disease, upper respiratory disease, malignant disease or clinically significant abnormal clinical laboratory values. Patients taking anti-cholinergic drugs were generally excluded except in a rare instance at the discretion of the investigator, in which case the dosage of anti-cholinergic drug was not changed during the study. Patients previously treated with capsaicin were first monitored to insure a return to baseline parameters in the absence of capsaicin. Preliminary studies to determine RTX dosage efficacy were performed with patients who had previous experience with intravesical capsaicin administration for treatment of bladder hyperactivity. Once a dose range for the study was determined, both previously capsaicin-treated and -untreated patients were employed.
The molecular weight of RTX is 628.72 for the clinical studies described herein. A 10 μM stock solution, 6.3 μg/mL was prepared by dissolving 6.32 mg of 99.5% pure RTX in 1000 mL absolute ethanol. Solutions for therapeutic use were diluted from the ethanolic stock solution into sterile normal saline (0.9% w/v NaCl) or a saline-ethanol mixture such that the final solution was 10% (v/v) ethanol. Therapeutic efficacy was tested for RTX concentrations of 1 μM, 0.1 μM and 0.05 μM. […] Prior to administration, RTX solutions were sterilized by filtration.
Fill cystometry: A two-way 8 F urethral catheter was inserted in the bladder under clean conditions. The residual urine was emptied. Infusion of saline at body temperature was started at a constant speed of […]. Patients were asked to indicate the moment of first desire to void (FDV) and any other sensation. The infusion was stopped at compulsive desire to void and the infused volume taken as the maximal cystometric capacity (MCC). Bladder pressure at which MCC occurs was also recorded. A prophylactic antibiotic (ciprofloxacin, 500 mg every 8 hours) was given during the next 48 hours.
Ice-Water test: The patient was clean catheterized with a two-way urethral catheter. A volume of 50 ml of iced saline (or half of the MCC found in cystometry) was put in a catheter-irrigating syringe and injected into the bladder during a period of 20 seconds. Bladder pressure was constantly measured. The test was considered positive (abnormal) if an involuntary bladder contraction was recorded during the next 60 seconds.
RTX Instillation: An 18 or 20 F three-way Foley catheter was used. The balloon was inflated to 20 ml and maintained gently pulled against the bladder neck to reduce leakage of RTX.
Up to 100 mL RTX solution was introduced into an emptied bladder, retained in the bladder for 30 minutes, then the bladder was emptied and rinsed with normal saline. Prior to treatment, baseline measurements of MCC, micturition frequency and ice water test response made. […]
Patients 1, 2, 6, 7, 8 and 13 received 0.05 μM RTX. The rest received 0.1 μM RTX. […]

[4] = test system: rats; conditions: cited from earlier work
[5] = day 14, Frequency ≧ 10/day, n = 7
[6] = day 14, Incontinence > episode/day
[7] = day 14, intent-to-treat, n = 14
[8] = day 30, Frequency ≧ 10/day, n = 7
[9] = day 30, Incontinence > episode/day
[10] = day 30, intent-to-treat, n = 14
[11] = day 60, Frequency ≧ 10/day, n = 7
[12] = day 60, Incontinence > episode/day
[13] = day 60, intent-to-treat, n = 14
[14] = day 90, Frequency ≧ 10/day, n = 7
[15] = day 90, Incontinence > episode/day
[16] = day 90, intent-to-treat, n = 14
[17] = patients able to do spontaneous micturitions

Structure (SMILES): C=C(C)[C@]12C[C@@H](C)[C@@]34O[C@](Cc5ccccc5)(O[C@@H]1[C@@H]3C=C(COC(=O)Cc1ccc(O)c(OC)c1)C[C@]1(O)C(=O)C(C)=C[C@@H]41)O2 [RTX, resiniferatoxin]
- CAPA Capacity after RTX ([1]; Patient 6, Dose 500 nM, one month after treatment, CAPB before RTX 200): 360
- DA Drug after RTX ([1]; Patient 6, Dose 500 nM, one month after treatment, DB before RTX 2): 01
- LVA Lost volume after RTX ([1]; Patient 6, Dose 500 nM, one month after treatment, LVB before RTX 60): 10
- ULPA Urine loss pressure after RTX ([1]; Patient 6, Dose 500 nM, one month after treatment, ULPB before RTX 96): 40
- LVA Lost volume after RTX ([1]; Patient 7 (stress incontinent), Dose 500 nM, one month after treatment, LVB 100): 80*
- CAPA Capacity after RTX ([1]; Patient 7, Dose 500 nM, one month after treatment, CAPB 180): 750
- DA Drug after RTX ([1]; Patient 7, Dose 500 nM, one month after treatment, DB 2): 1
- ULPA Urine loss pressure after RTX ([1]; Patient 7, Dose 500 nM, one month after treatment, ULPB 63): 36
- CAPA Capacity after RTX ([1]; Patient 9, Dose 1000 nM, one month after treatment, CAPB 100): 300
- DA Drug after RTX ([1]; Patient 9, Dose 1000 nM, one month after treatment, DB 2): 2
- LVA Lost volume after RTX ([1]; Patient 9, Dose 1000 nM, one month after treatment, LVB 180): 0
- ULPA Urine loss pressure after RTX ([1]; Patient 9, Dose 1000 nM, one month after treatment, ULPB 32): 30
- CAPA Capacity after RTX ([1]; Patient 10, Dose 1000 nM, one month after treatment, CAPB 280): 460
- DA Drug after RTX ([1]; Patient 10, Dose 1000 nM, one month after treatment, DB 2): 2
- LVA Lost volume after RTX ([1]; Patient 10, Dose 1000 nM, one month after treatment, LVB 180): 0
- ULPA Urine loss pressure after RTX ([1]; Patient 10, Dose 1000 nM, one month after treatment, ULPB 46): 44
- urge and leakage around indwelling catheter ([1]; bedridden MS patient, 100 ml of 1 μM solution, six weeks): no urge and no leakage
- Urinary loss ([1]; four MS patients, one month after treatment): decreased after instillation of RTX in all four patients
- desensitization of bladder afferents [2]: long-lasting desensitization of bladder afferents
- patients with meaningful effects, decreases in frequency, urge or wetness ([3]; 14-patient study): 71%
- MCC ([3]; Patient #10 (spinal cord injury), 100 μM RTX instillation, day 14, Baseline MCC 80 ml): 500 mL
- leaks on the worst day ([3]; Patient #10, 100 μM RTX instillation, before treatment incontinence episodes more than 7 times per day): 2-3 times per day
- incontinence episodes, Case #11 ([3]; after RTX (0.1 μM), no improvement during placebo): substantially decreased incontinence episodes
- symptoms evoked by RTX instillation ([3]; all patients, noted by a few patients during the first minutes of the treatment): itching or mild discomfort were the only symptoms evoked by RTX
- incontinence episodes, Case #7 ([3]; between days 14 and 30 post-treatment, 0.05 μM, prior: at least once between catheterizations): only one incontinence episode
- Bladder Capacity, % Change ([3]; day 14): +224%
- Bladder Capacity, Change from Pre-RTX ([3]; day 14): +193 mLs
- Mean Frequency/day, % Change [3, 5]: −34%
- Mean Frequency/day, Change from Pre-RTX [3, 5]: -5.3 day⁻¹
- Mean Incontinent Episodes/day, % Change [3, 6]: −44%
- Mean Incontinent Episodes/day, Difference from Pre-RTX [3, 6]: -1.6 day⁻¹
- Mean Frequency/day ([3]; day 14, intent-to-treat analysis, n = 14, Pre-RTX 9.1): 6.9 day⁻¹
- Mean Frequency/day, Difference from pre-RTX [3, 7]: -2.2 day⁻¹
- Mean bladder capacity, Difference from pre-RTX [3, 7]: 95 mL
- Mean incontinent episodes, Difference from pre-RTX [3, 7]: −1.0
- Mean incontinent episodes [3, 7]: 1.0
- Mean bladder capacity [3, 7]: 277 mL
- Bladder Capacity ([3]; day 14, single instillation 0.05 or 0.1 μM): 279 mLs
- Mean Frequency/day ([3]; day 14, patients with Frequency ≧ 10/day, n = 7, Pre-RTX 15.7): 10.4 day⁻¹
- Mean Incontinent Episodes/day ([3]; day 14, patients with Incontinence > episode/day): 2.0 day⁻¹
- Bladder Capacity, % Change ([3]; day 30): +156%
- Bladder Capacity, Change from Pre-RTX ([3]; day 30): +134 mLs
- Mean Frequency/day, % Change [3, 8]: −28%
- Mean Frequency/day, Change from Pre-RTX [3, 8]: -4.4 day⁻¹
- Mean Frequency/day ([3]; day 30, Frequency ≧ 10/day, n = 7, Pre-RTX 15.7): 11.3 day⁻¹
- Mean Incontinent Episodes/day, % Change [3, 9]: −64%
- Mean Incontinent Episodes/day, Difference from Pre-RTX [3, 9]: -2.3 day⁻¹
- Mean Incontinent Episodes/day [3, 9]: 1.3 day⁻¹
- Mean Frequency/day, Difference from pre-RTX [3, 10]: -1.6 day⁻¹
- Mean bladder capacity, Difference from pre-RTX [3, 10]: 64 mL
- Mean incontinent episodes, Difference from pre-RTX [3, 10]: −1.4
- Mean incontinent episodes [3, 10]: 0.7
- Mean Frequency/day ([3]; day 30, intent-to-treat, n = 14, Pre-RTX 9.1): 7.5 day⁻¹
- Mean bladder capacity [3, 10]: 247 mL
- Bladder Capacity ([3]; day 30): 220 mLs
- Bladder Capacity, % Change ([3]; day 60): +159%
- Bladder Capacity, Change from Pre-RTX ([3]; day 60): +137 mLs
- Mean Frequency/day, % Change [3, 11]: −34%
- Mean Frequency/day, Change from Pre-RTX [3, 11]: -5.3 day⁻¹
- Mean Frequency/day ([3]; day 60, Frequency ≧ 10/day, n = 7, Pre-RTX 15.7): 10.4 day⁻¹
- Mean Incontinent Episodes/day, % Change [3, 12]: −67%
- Mean Incontinent Episodes/day, Difference from Pre-RTX [3, 12]: -2.4 day⁻¹
- Mean Incontinent Episodes/day [3, 12]: 1.2 day⁻¹
- Mean Frequency/day, Difference from pre-RTX [3, 13]: -2.1 day⁻¹
- Mean bladder capacity, Difference from pre-RTX [3, 13]: 45 mL
- Mean incontinent episodes, Difference from pre-RTX [3, 13]: −1.7
- Mean incontinent episodes [3, 13]: 0.4
- Mean Frequency/day ([3]; day 60, intent-to-treat, n = 14, Pre-RTX 9.1): 7.0 day⁻¹
- Mean bladder capacity [3, 13]: 228 mL
- Bladder Capacity ([3]; day 60): 223 mLs
- Bladder Capacity, Change from Pre-RTX ([3]; day 90): +191 mLs
- Mean Frequency/day, % Change [3, 14]: −31%
- Mean Frequency/day, Change from Pre-RTX [3, 14]: -4.9 day⁻¹
- Mean Frequency/day ([3]; day 90, Frequency ≧ 10/day, n = 7, Pre-RTX 15.7): 10.8 day⁻¹
- Mean Incontinent Episodes/day, % Change [3, 15]: −58%
- Mean Incontinent Episodes/day, Difference from Pre-RTX [3, 15]: -2.1 day⁻¹
- Mean Incontinent Episodes/day [3, 15]: 1.5 day⁻¹
- Mean Frequency/day, Difference from pre-RTX [3, 16]: -2.6 day⁻¹
- Mean bladder capacity, Difference from pre-RTX [3, 16]: 148 mL
- Mean incontinent episodes, Difference from pre-RTX [3, 16]: −1.5
- Mean incontinent episodes [3, 16]: 0.6
- Mean Frequency/day ([3]; day 90, intent-to-treat, n = 14, Pre-RTX 9.1): 6.2 day⁻¹
- Mean bladder capacity [3, 16]: 330 mL
- Bladder Capacity ([3]; day 90): 277 mLs
- positive benefit on incontinent episodes ([3]; eight evaluable patients with more than one incontinent episode/day): only one did not show a positive benefit
- patients in whom bladder capacity (MCC) increased ([3]; out of the 14 patients): 11
- duration of decreased frequency post-treatment [3, 17]: up to 60 days
- improvement in MCC [3, 17]: All patients in the group but one (#1) showed clear improvement (increase) in MCC
- reported improvement after RTX administration ([3]; patients requiring self-catheterization or supra-pubic maneuvers (#4, 5, 7, 8 and 11)): all but one (#4) reported improvement
- full continence after RTX instillation ([3]; patients who were entirely incontinent (#3, 4, 6, 9, 12, 13 and 14)): five (#3, 6 and 9, 12 and 13) achieved full continence
- duration of effect of a single instillation ([3]; single instillation): up to 6 months
- pain upon intravesical administration [4]: pain induced by intravesical administration of RTX
